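Five concentrations, 48 hours, 96-well plates. TGI is the concentration that stops growth completely.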
How the values were obtained:
Assay in all cases: inhibition of tumour cell growth, NCI panel, 48 h
HS 578T breast = tested on: HS 578T breast
RPMI-8226 leukemia = tested on: RPMI-8226 leukemia
U251 CNS = tested on: U251 CNS
HCT-116 colon = tested on: HCT-116 colon
IGROV1 ovarian = tested on: IGROV1 ovarian
SF-539 CNS = tested on: SF-539 CNS
CCRF-CEM leukemia = tested on: CCRF-CEM leukemia
SK-OV-3 ovarian = tested on: SK-OV-3 ovarian
HCT-15 colon = tested on: HCT-15 colon
SF-268 CNS = tested on: SF-268 CNS
A549 NSCLC = tested on: A549 NSCLC
HOP-62 NSCLC = tested on: HOP-62 NSCLC
SW-620 colon = tested on: SW-620 colon
NCI/ADR-RES ovarian = tested on: NCI/ADR-RES ovarian
UO-31 renal = tested on: UO-31 renal
SK-MEL-28 melanoma = tested on: SK-MEL-28 melanoma
SK-MEL-2 melanoma = tested on: SK-MEL-2 melanoma
TK-10 renal = tested on: TK-10 renal
NCI-H23 lung = tested on: NCI-H23 lung
MOLT-4 leukemia = tested on: MOLT-4 leukemia
MDA-N = tested on: MDA-N
MDA-MB-231 breast = tested on: MDA-MB-231 breast
HT29 colon = tested on: HT29 colon
OVCAR-8 ovarian = tested on: OVCAR-8 ovarian
M14 melanoma = tested on: M14 melanoma
UACC-257 melanoma = tested on: UACC-257 melanoma
786-0 renal = tested on: 786-0 renal
RXF 393 renal = tested on: RXF 393 renal
KM12 colon = tested on: KM12 colon
MDA-MB-435 = tested on: MDA-MB-435
NCI-H460 lung = tested on: NCI-H460 lung
PC-3 prostate = tested on: PC-3 prostate
NCI-H522 lung = tested on: NCI-H522 lung
SK-MEL-5 melanoma = tested on: SK-MEL-5 melanoma
OVCAR-5 ovarian = tested on: OVCAR-5 ovarian
HL-60(TB) leukemia = tested on: HL-60(TB) leukemia
NCI-H226 lung = tested on: NCI-H226 lung
MCF7 breast = tested on: MCF7 breast
A498 renal = tested on: A498 renal
HCC-2998 colon = tested on: HCC-2998 colon
MALME-3M melanoma = tested on: MALME-3M melanoma
EKVX NSCLC = tested on: EKVX NSCLC
COLO 205 colon = tested on: COLO 205 colon
OVCAR-3 ovarian = tested on: OVCAR-3 ovarian
OVCAR-4 ovarian = tested on: OVCAR-4 ovarian
HOP-92 NSCLC = tested on: HOP-92 NSCLC
K-562 leukemia = tested on: K-562 leukemia
SF-295 CNS = tested on: SF-295 CNS
LOX IMVI melanoma = tested on: LOX IMVI melanoma
ACHN renal = tested on: ACHN renal
SN12C renal = tested on: SN12C renal
SNB-19 CNS = tested on: SNB-19 CNS
CAKI-1 renal = tested on: CAKI-1 renal
SNB-75 CNS = tested on: SNB-75 CNS
BT-549 breast = tested on: BT-549 breast
SR leukemia = tested on: SR leukemia
UACC-62 melanoma = tested on: UACC-62 melanoma
DU-145 prostate = tested on: DU-145 prostate

With `CN(C)CCCNC(=O)CCNC(=O)c1cc(NC(=O)c2cc(NC(=O)c3cc(NC(=O)CCCNC(=O)c4cc(NC(=O)c5cc(NC(=O)c6nccn6C)cn5C)cn4C)cn3C)cn2C)cn1C` the TGI (HS 578T breast) was > 100 µM, the TGI (RPMI-8226 leukemia) was > 100 µM and the TGI (U251 CNS) was > 100 µM. For the same compound, the TGI (HCT-116 colon) was > 100 µM, the TGI (IGROV1 ovarian) was > 100 µM and the TGI (SF-539 CNS) was > 100 µM. The TGI (CCRF-CEM leukemia) was > 100 µM, the TGI (SK-OV-3 ovarian) was > 100 µM and the TGI (HCT-15 colon) was > 100 µM. The TGI (SF-268 CNS) was > 100 µM, the TGI (A549 NSCLC) was > 100 µM and the TGI (HOP-62 NSCLC) was > 100 µM. For the same compound, the TGI (SW-620 colon) was > 100 µM, the TGI (NCI/ADR-RES ovarian) was > 100 µM and the TGI (UO-31 renal) was > 100 µM. The TGI (SK-MEL-28 melanoma) was > 100 µM, the TGI (SK-MEL-2 melanoma) was > 100 µM and the TGI (TK-10 renal) was > 100 µM. The TGI (NCI-H23 lung) was > 100 µM, the TGI (MOLT-4 leukemia) was > 100 µM and the TGI (MDA-N) was > 100 µM. The TGI (MDA-MB-231 breast) was > 100 µM, the TGI (HT29 colon) was > 100 µM and the TGI (OVCAR-8 ovarian) was > 100 µM. The TGI (M14 melanoma) was > 100 µM, the TGI (UACC-257 melanoma) was > 100 µM and the TGI (786-0 renal) was > 100 µM. The TGI (RXF 393 renal) was > 100 µM, the TGI (KM12 colon) was > 100 µM and the TGI (MDA-MB-435) was > 100 µM. For the same compound, the TGI (NCI-H460 lung) was > 100 µM, the TGI (PC-3 prostate) was > 100 µM and the TGI (NCI-H522 lung) was > 100 µM. The TGI (SK-MEL-5 melanoma) was > 100 µM, the TGI (OVCAR-5 ovarian) was > 100 µM and the TGI (HL-60(TB) leukemia) was > 100 µM. For the same compound, the TGI (NCI-H226 lung) was > 100 µM, the TGI (MCF7 breast) was > 100 µM and the TGI (A498 renal) was > 100 µM. For the same compound, the TGI (HCC-2998 colon) was > 100 µM, the TGI (MALME-3M melanoma) was > 100 µM and the TGI (EKVX NSCLC) was > 100 µM. The TGI (COLO 205 colon) was > 100 µM, the TGI (OVCAR-3 ovarian) was > 100 µM and the TGI (OVCAR-4 ovarian) was > 100 µM. For the same compound, the TGI (HOP-92 NSCLC) was > 100 µM, the TGI (K-562 leukemia) was > 100 µM and the TGI (SF-295 CNS) was > 100 µM. The TGI (LOX IMVI melanoma) was > 100 µM, the TGI (ACHN renal) was > 100 µM and the TGI (SN12C renal) was > 100 µM. For the same compound, the TGI (SNB-19 CNS) was > 100 µM, the TGI (CAKI-1 renal) was > 100 µM and the TGI (SNB-75 CNS) was > 100 µM.

In the case of `C=C(C)[C@@H]1CC[C@]2(COC(C)=O)CC[C@]3(C)[C@H](CC[C@@H]4[C@@]5(C)CC[C@H](OC(C)=O)C(C)(C)[C@@H]5CC[C@]43C)[C@@H]12`, the TGI (HS 578T breast) is reported as > 50 µM, the TGI (RPMI-8226 leukemia) is reported as > 50 µM and the TGI (U251 CNS) is reported as > 50 µM. For the same compound, the TGI (HCT-116 colon) was > 50 µM, the TGI (IGROV1 ovarian) was > 50 µM and the TGI (SF-539 CNS) was > 50 µM. The TGI (CCRF-CEM leukemia) was > 50 µM, the TGI (SK-OV-3 ovarian) was > 50 µM and the TGI (HCT-15 colon) was > 50 µM. The TGI (A549 NSCLC) was > 50 µM, the TGI (HOP-62 NSCLC) was > 50 µM and the TGI (SW-620 colon) was > 50 µM. The TGI (NCI/ADR-RES ovarian) was > 50 µM, the TGI (UO-31 renal) was > 50 µM and the TGI (SK-MEL-28 melanoma) was > 50 µM. For the same compound, the TGI (SK-MEL-2 melanoma) was > 50 µM, the TGI (NCI-H23 lung) was > 50 µM and the TGI (MOLT-4 leukemia) was > 50 µM. The TGI (MDA-N) was > 50 µM, the TGI (MDA-MB-231 breast) was > 50 µM and the TGI (HT29 colon) was > 50 µM. The TGI (OVCAR-8 ovarian) was > 50 µM, the TGI (M14 melanoma) was > 50 µM and the TGI (UACC-257 melanoma) was > 50 µM. For the same compound, the TGI (BT-549 breast) was > 50 µM, the TGI (786-0 renal) was > 50 µM and the TGI (SR leukemia) was > 50 µM. The TGI (MDA-MB-435) was > 50 µM, the TGI (PC-3 prostate) was > 50 µM and the TGI (NCI-H522 lung) was > 50 µM. The TGI (SK-MEL-5 melanoma) was > 50 µM, the TGI (HL-60(TB) leukemia) was > 50 µM and the TGI (NCI-H226 lung) was > 50 µM. For the same compound, the TGI (A498 renal) was > 50 µM, the TGI (HCC-2998 colon) was 1.67 µM and the TGI (UACC-62 melanoma) was > 50 µM. For the same compound, the TGI (COLO 205 colon) was > 50 µM, the TGI (OVCAR-3 ovarian) was > 50 µM and the TGI (OVCAR-4 ovarian) was > 50 µM. The TGI (HOP-92 NSCLC) was > 50 µM, the TGI (K-562 leukemia) was > 50 µM and the TGI (LOX IMVI melanoma) was > 50 µM. The TGI (ACHN renal) was > 50 µM, the TGI (SN12C renal) was > 50 µM and the TGI (SNB-19 CNS) was > 50 µM. For the same compound, the TGI (SNB-75 CNS) was > 50 µM.

For `C=CCN(C(=O)OC(C)(C)C)C1=CC2C(C)=CN(S(=O)(=O)c3ccccc3)C2C(OCc2ccccc2)=C1` (configuration not stated), the TGI (HS 578T breast) was > 100 µM, the TGI (RPMI-8226 leukemia) was > 100 µM and the TGI (U251 CNS) was > 100 µM. For the same compound, the TGI (HCT-116 colon) was > 100 µM, the TGI (IGROV1 ovarian) was > 100 µM and the TGI (CCRF-CEM leukemia) was > 100 µM. The TGI (SK-OV-3 ovarian) was > 100 µM, the TGI (HCT-15 colon) was > 100 µM and the TGI (A549 NSCLC) was > 100 µM. The TGI (HOP-62 NSCLC) was > 100 µM, the TGI (SW-620 colon) was > 100 µM and the TGI (NCI/ADR-RES ovarian) was > 100 µM. For the same compound, the TGI (UO-31 renal) was > 100 µM, the TGI (SK-MEL-28 melanoma) was > 100 µM and the TGI (SK-MEL-2 melanoma) was > 100 µM. For the same compound, the TGI (TK-10 renal) was > 100 µM, the TGI (NCI-H23 lung) was > 100 µM and the TGI (MOLT-4 leukemia) was > 100 µM. For the same compound, the TGI (MDA-N) was > 100 µM, the TGI (MDA-MB-231 breast) was > 100 µM and the TGI (HT29 colon) was > 100 µM. The TGI (OVCAR-8 ovarian) was > 100 µM, the TGI (M14 melanoma) was > 100 µM and the TGI (UACC-257 melanoma) was > 100 µM. For the same compound, the TGI (BT-549 breast) was > 100 µM, the TGI (786-0 renal) was > 100 µM and the TGI (RXF 393 renal) was > 100 µM. For the same compound, the TGI (KM12 colon) was > 100 µM, the TGI (MDA-MB-435) was > 100 µM and the TGI (NCI-H460 lung) was > 100 µM. The TGI (PC-3 prostate) was > 100 µM, the TGI (NCI-H522 lung) was > 100 µM and the TGI (SK-MEL-5 melanoma) was > 100 µM. For the same compound, the TGI (OVCAR-5 ovarian) was > 100 µM, the TGI (HL-60(TB) leukemia) was > 100 µM and the TGI (NCI-H226 lung) was > 100 µM. For the same compound, the TGI (MCF7 breast) was > 100 µM, the TGI (HCC-2998 colon) was > 100 µM and the TGI (DU-145 prostate) was > 100 µM. For the same compound, the TGI (MALME-3M melanoma) was > 100 µM, the TGI (UACC-62 melanoma) was > 100 µM and the TGI (EKVX NSCLC) was > 100 µM. The TGI (COLO 205 colon) was > 100 µM, the TGI (OVCAR-3 ovarian) was > 100 µM and the TGI (OVCAR-4 ovarian) was > 100 µM. For the same compound, the TGI (K-562 leukemia) was > 100 µM, the TGI (SF-295 CNS) was > 100 µM and the TGI (LOX IMVI melanoma) was > 100 µM. The TGI (ACHN renal) was > 100 µM, the TGI (SN12C renal) was > 100 µM and the TGI (CAKI-1 renal) was > 100 µM. The TGI (SNB-75 CNS) was > 100 µM.

Source: PubChem BioAssay (NCI)
